Source: the supplement of paper PMC10307832

Legend:
Experiment in all cases: relative viability (nuclei count vs DMSO), 5 days (fraction); higher = more cells survive
HARA = test system: HARA
In short: (§1)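 Relative viability equals treated-well nuclei counts divided by vehicle-well nuclei counts. Counts came from 4× images of lung cancer cell lines grown in 1536-well plates for 5 days after pin-tool dosing on the day after seeding. Dosing used one drug alone or a fixed anchor-drug dose plus five library-drug doses (not always all listed) in √10 steps, and values are medians of duplicate plates.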

NCI-H2228 = test system: NCI-H2228
In short: as §1

NCI-H1993 = test system: NCI-H1993
In short: as §1

NCI-H2170 = test system: NCI-H2170
In short: as §1

SK-MES-1 = test system: SK-MES-1
In short: as §1

ABC-1 = test system: ABC-1
In short: as §1

A-427 = test system: A-427
In short: as §1

NCI-H2009 = test system: NCI-H2009
In short: as §1

NCI-H727 = test system: NCI-H727
In short: as §1

NCI-H322M = test system: NCI-H322M
In short: as §1

HOP-62 = test system: HOP-62
In short: as §1

NCI-H1944 = test system: NCI-H1944
In short: as §1

NCI-H3122 = test system: NCI-H3122
In short: as §1

NCI-H596 = test system: NCI-H596
In short: as §1

SW 900 = test system: SW 900
In short: as §1

NCI-H1792 = test system: NCI-H1792
In short: as §1

LK-2 = test system: LK-2
In short: as §1

PC-3 [JPC-3] = test system: PC-3 [JPC-3]
In short: as §1

NCI-H522 = test system: NCI-H522
In short: as §1

EMC-BAC-2 = test system: EMC-BAC-2
In short: as §1

LXF-289 = test system: LXF-289
In short: as §1

SW 1573 = test system: SW 1573
In short: as §1

COc1nc(C)cnc1NS(=O)(=O)c1cccnc1-c1ccc(-c2nnco2)cc1 [Zibotentan] + CCNC(=O)c1noc(-c2cc(C(C)C)c(O)cc2O)c1-c1ccc(CN2CCOCC2)cc1 [Luminespib] (partner 0.01 µM)
relative viability (HARA; first compound 0.08 µM): 0.731
relative viability (HARA; first compound 0.253 µM): 0.705
relative viability (HARA; first compound 0.8 µM): 0.636
relative viability (HARA; first compound 2.53 µM): 0.836
relative viability (NCI-H2228; first compound 0.08 µM): 0.154
relative viability (NCI-H2228; first compound 0.253 µM): 0.134
relative viability (NCI-H2228; first compound 0.8 µM): 0.157
relative viability (NCI-H2228; first compound 2.53 µM): 0.191
relative viability (NCI-H1993; first compound 0.08 µM): 0.667
relative viability (NCI-H1993; first compound 0.253 µM): 0.978
relative viability (NCI-H1993; first compound 0.8 µM): 0.839
relative viability (NCI-H1993; first compound 2.53 µM): 0.949
relative viability (NCI-H2170; first compound 0.08 µM): 0.397
relative viability (NCI-H2170; first compound 0.253 µM): 0.721
relative viability (NCI-H2170; first compound 0.8 µM): 0.646
relative viability (NCI-H2170; first compound 2.53 µM): 0.691
relative viability (SK-MES-1; first compound 0.08 µM): 1.05
relative viability (SK-MES-1; first compound 0.253 µM): 0.788
relative viability (SK-MES-1; first compound 0.8 µM): 0.818
relative viability (SK-MES-1; first compound 2.53 µM): 0.83
relative viability (ABC-1; first compound 0.08 µM): 0.48
relative viability (ABC-1; first compound 0.8 µM): 0.694
relative viability (ABC-1; first compound 2.53 µM): 0.696
relative viability (A-427; first compound 0.08 µM): 1.16
relative viability (A-427; first compound 0.253 µM): 0.857
relative viability (A-427; first compound 0.8 µM): 0.998
relative viability (A-427; first compound 2.53 µM): 0.911
relative viability (NCI-H2009; first compound 0.08 µM): 0.959
relative viability (NCI-H2009; first compound 0.253 µM): 1.03
relative viability (NCI-H2009; first compound 0.8 µM): 1.08
relative viability (NCI-H2009; first compound 2.53 µM): 1
relative viability (NCI-H727; first compound 0.08 µM): 0.289
relative viability (NCI-H727; first compound 0.253 µM): 0.316
relative viability (NCI-H727; first compound 0.8 µM): 0.83
relative viability (NCI-H727; first compound 2.53 µM): 0.325
relative viability (NCI-H322M; first compound 0.08 µM): 0.876
relative viability (NCI-H322M; first compound 0.253 µM): 0.474
relative viability (NCI-H322M; first compound 0.8 µM): 0.897
relative viability (NCI-H322M; first compound 2.53 µM): 0.918
relative viability (HOP-62; first compound 0.08 µM): 0.911
relative viability (HOP-62; first compound 0.253 µM): 0.869
relative viability (HOP-62; first compound 0.8 µM): 0.906
relative viability (HOP-62; first compound 2.53 µM): 0.956
relative viability (NCI-H1944; first compound 0.08 µM): 0.732
relative viability (NCI-H1944; first compound 0.253 µM): 0.694
relative viability (NCI-H1944; first compound 0.8 µM): 0.75
relative viability (NCI-H1944; first compound 2.53 µM): 0.742
relative viability (NCI-H3122; first compound 0.08 µM): 0.0904
relative viability (NCI-H3122; first compound 0.253 µM): 0.112
relative viability (NCI-H3122; first compound 0.8 µM): 0.0537
relative viability (NCI-H3122; first compound 2.53 µM): 0.104
relative viability (NCI-H596; first compound 0.08 µM): 1.02
relative viability (NCI-H596; first compound 0.253 µM): 0.939
relative viability (NCI-H596; first compound 0.8 µM): 1.16
relative viability (NCI-H596; first compound 2.53 µM): 1.03
relative viability (SW 900; first compound 0.08 µM): 0.203
relative viability (SW 900; first compound 0.253 µM): 0.174
relative viability (SW 900; first compound 0.8 µM): 0.177
relative viability (SW 900; first compound 2.53 µM): 0.172
relative viability (NCI-H1792; first compound 0.08 µM): 0.417
relative viability (NCI-H1792; first compound 0.253 µM): 0.362
relative viability (NCI-H1792; first compound 0.8 µM): 0.469
relative viability (NCI-H1792; first compound 2.53 µM): 0.346
relative viability (LK-2; first compound 0.08 µM): 0.216
relative viability (LK-2; first compound 0.253 µM): 0.208
relative viability (LK-2; first compound 0.8 µM): 0.168
relative viability (LK-2; first compound 2.53 µM): 0.154
relative viability (PC-3 [JPC-3]; first compound 0.08 µM): 0.692
relative viability (PC-3 [JPC-3]; first compound 0.253 µM): 0.738
relative viability (PC-3 [JPC-3]; first compound 0.8 µM): 0.774
relative viability (PC-3 [JPC-3]; first compound 2.53 µM): 0.718
relative viability (NCI-H522; first compound 0.08 µM): 1.26
relative viability (NCI-H522; first compound 0.253 µM): 1.02
relative viability (NCI-H522; first compound 0.8 µM): 1.13
relative viability (NCI-H522; first compound 2.53 µM): 1.09
relative viability (EMC-BAC-2; first compound 0.08 µM): 1.3
relative viability (EMC-BAC-2; first compound 0.8 µM): 1.13
relative viability (EMC-BAC-2; first compound 2.53 µM): 1.22
relative viability (LXF-289; first compound 0.08 µM): 0.657
relative viability (LXF-289; first compound 0.253 µM): 0.683
relative viability (LXF-289; first compound 0.8 µM): 0.627
relative viability (LXF-289; first compound 2.53 µM): 0.756
relative viability (SW 1573; first compound 0.08 µM): 0.341
relative viability (SW 1573; first compound 0.8 µM): 0.348
relative viability (SW 1573; first compound 2.53 µM): 0.269
